According to ChEMBL document CHEMBL1275384, “Structure-activity relationships of benzimidazole-based selective inhibitors of the mitogen activated kinase-5 signaling pathway” (2010):

Columns and labels:
SK-MEL-5 = experiment: Cytotoxicity against human SK-MEL-5 cells at 10 uM assessed as cell growth relative to control; assay type: functional; details: read-out: Activity
M14 = experiment: Cytotoxicity against human M14 cells at 10 uM assessed as cell growth relative to control; assay type: functional; details: read-out: Activity
SW-620 = experiment: Cytotoxicity against human SW620 cells at 10 uM assessed as cell growth relative to control; assay type: functional; details: read-out: Activity
UACC-62 = experiment: Cytotoxicity against human UACC62 cells at 10 uM assessed as cell growth relative to control; assay type: functional; details: read-out: Activity
A498 = experiment: Cytotoxicity against human A498 cells at 10 uM assessed as cell growth relative to control; assay type: functional; details: read-out: Activity
LOX IMVI = experiment: Cytotoxicity against human LOXIMVI cells at 10 uM assessed as cell growth relative to control; assay type: functional; details: read-out: Activity
UACC-257 = experiment: Cytotoxicity against human UACC257 cells at 10 uM assessed as cell growth relative to control; assay type: functional; details: read-out: Activity
MDA-MB-231 = experiment: Cytotoxicity against human MDA-MB-231 cells at 10 uM assessed as cell growth relative to control; assay type: functional; details: read-out: Activity
T47D = experiment: Cytotoxicity against human T47D cells at 10 uM assessed as cell growth relative to control; assay type: functional; details: read-out: Activity
U-251 = experiment: Cytotoxicity against human U251 cells at 10 uM assessed as cell growth relative to control; assay type: functional; details: read-out: Activity
[1] = biological target: Dual specificity mitogen-activated protein kinase kinase; MEK1/2 (Homo sapiens) (UniProt P36507+Q02750); details: HEK293, at 10 µM
Description: Inhibition of EGF-induced MEK1/2 activity in HEK293 cells assessed as phosphorylated ERK1/2 level at 10 uM after 1 hr by Western blotting relative to control

HL-60(TB) = experiment: Cytotoxicity against human HL-60(TB) cells at 10 uM assessed as cell growth relative to control; assay type: functional; details: read-out: Activity
[2] = Cytotoxicity against human Hs 578T cells at 10 uM assessed as cell growth relative to control; assay type: functional; details: read-out: Activity
K562 = experiment: Cytotoxicity against human K562 cells at 10 uM assessed as cell growth relative to control; assay type: functional; details: read-out: Activity
Malme-3M = experiment: Cytotoxicity against human MALME-3M cells at 10 uM assessed as cell growth relative to control; assay type: functional; details: read-out: Activity
HCT-116 = experiment: Cytotoxicity against human HCT116 cells at 10 uM assessed as cell growth relative to control; assay type: functional; details: read-out: Activity
PC-3 = experiment: Cytotoxicity against human PC3 cells at 10 uM assessed as cell growth relative to control; assay type: functional; details: read-out: Activity

Sequence of Dual specificity mitogen-activated protein kinase kinase; MEK1/2 (Homo sapiens) (P36507 whole entry, looked up): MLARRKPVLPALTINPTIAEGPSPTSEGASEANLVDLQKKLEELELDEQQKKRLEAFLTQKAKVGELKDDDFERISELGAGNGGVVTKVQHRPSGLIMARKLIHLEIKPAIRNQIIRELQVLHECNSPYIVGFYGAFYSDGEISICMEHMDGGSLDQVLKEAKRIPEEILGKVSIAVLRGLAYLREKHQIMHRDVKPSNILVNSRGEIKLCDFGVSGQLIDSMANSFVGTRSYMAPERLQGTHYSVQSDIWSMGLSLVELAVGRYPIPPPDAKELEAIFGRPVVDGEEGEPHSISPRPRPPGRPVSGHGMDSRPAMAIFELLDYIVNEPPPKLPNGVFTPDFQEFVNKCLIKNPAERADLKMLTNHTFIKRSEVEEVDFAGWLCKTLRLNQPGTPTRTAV
Sequence of Dual specificity mitogen-activated protein kinase kinase; MEK1/2 (Homo sapiens) (Q02750 whole entry, looked up): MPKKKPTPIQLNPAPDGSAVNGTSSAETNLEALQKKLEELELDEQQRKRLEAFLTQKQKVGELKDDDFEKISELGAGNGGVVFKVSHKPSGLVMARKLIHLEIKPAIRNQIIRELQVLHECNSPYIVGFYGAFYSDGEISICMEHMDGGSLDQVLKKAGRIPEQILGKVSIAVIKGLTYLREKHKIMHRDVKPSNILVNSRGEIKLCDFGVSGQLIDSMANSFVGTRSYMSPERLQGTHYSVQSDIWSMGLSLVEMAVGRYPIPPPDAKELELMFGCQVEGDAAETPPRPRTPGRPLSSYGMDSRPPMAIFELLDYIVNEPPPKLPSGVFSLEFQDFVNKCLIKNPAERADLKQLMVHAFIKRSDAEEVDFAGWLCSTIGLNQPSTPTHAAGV

Structure (SMILES)	growth at 10 µM (SK-MEL-5)	growth at 10 µM (M14)	growth at 10 µM (SW-620)	growth at 10 µM (UACC-62)	growth at 10 µM (A498)	growth at 10 µM (LOX IMVI)	growth at 10 µM (UACC-257)	growth at 10 µM (MDA-MB-231)	growth at 10 µM (T47D)	growth at 10 µM (U-251)	inhibition [1]	growth at 10 µM (HL-60(TB))	growth at 10 µM [2]	growth at 10 µM (K562)	growth at 10 µM (Malme-3M)	growth at 10 µM (HCT-116)	growth at 10 µM (PC-3)
COc1cc(NCc2ccccc2)c2ncn(C(C)C)c2c1	122%	108%	146%	97.3%	106%	115%	106%	111%	80.1%	103%	54%	50.3%	174%	64.2%	49.2%	103%	–
COCCCOc1cc(NCc2ccccc2)c2ncn(C(C)C)c2c1	95.8%	104%	101%	91.9%	83.5%	94.5%	101%	102%	91.9%	95.6%	–	100%	84.4%	90.9%	113%	100%	96.1%
